Legend:
kochia = experiment: Test E preemergence herbicide test; format: in vivo, Kochia scoparia; set-up: key: 0 = no effect, 100 = complete control
Procedure, shortened: (§1)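 Seeds were sown in silt loam soil and treated preemergence with test chemicals in a non-phytotoxic solvent mixture containing a surfactant. Plants were kept in a greenhouse for 21 days, then visually rated against untreated controls on a 0–100 scale (0 = no effect, 100 = complete control).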

crabgrass, large = experiment: Test E preemergence herbicide test; format: in vivo, Digitaria sanguinalis; set-up: key: 0 = no effect, 100 = complete control
Procedure, shortened: as §1

soybean = experiment: Test E preemergence herbicide test; format: in vivo, Glycine max; set-up: key: 0 = no effect, 100 = complete control
Text: (§2) Seeds of plant species selected from corn (Zea mays), soybean (Glycine max), velvetleaf (Abutilon theophrasti), lambsquarters (Chenopodium album), wild poinsettia (Euphorbia heterophylla), pigweed, palmer (palmer pigweed, Amaranthus palmeri), waterhemp (common waterhemp, Amaranthus rudis), surinam grass (Brachiaria decumbens), crabgrass, large (large crabgrass, Digitaria sanguinalis), crabgrass, Brazil (Brazilian crabgrass, Digitaria horizontalis), panicum, fall (fall panicum, Panicum dichotomiflorum), foxtail, giant (giant foxtail, Setaria faberii), foxtail, green (green foxtail, Setaria viridis), goosegrass (Eleusine indica), johnsongrass (Sorghum halepense), ragweed (common ragweed, Ambrosia elatior), barnyardgrass (Echinochloa crus-galli), sandbur (southern sandbur, Cenchrus echinatus), arrowleaf […] rhombifolia), ryegrass, Italian (Italian ryegrass, Lolium multiflorum), dayflower, VA (Virginia dayflower, Commelina virginica), field bindweed (Convolvulus arvensis), morningglory (Ipomoea coccinea), nightshade (eastern black nightshade, Solanum ptycanthum), kochia (Kochia scoparia), nutsedge, yellow (yellow nutsedge, Cyperus esculentus), cocklebur (common cocklebur, Xanthium strumarium), smartweed (ladysthumb smartweed, Polygonum Persicaria) and beggarticks (hairy beggarticks, Bidens pilosa), were planted into a silt loam soil and treated preemergence with test chemicals formulated in a non-phytotoxic solvent mixture which included a surfactant. Treated plants and controls were maintained in a greenhouse for 21 days, after which time all species were compared to controls and visually evaluated. Plant response ratings, summarized in Table E, are based on a scale of 0 to 100 where 0 is no effect and 100 is complete control. A dash (-) response means no test result.

pigweed = experiment: Test D pre-/postemergence herbicide test; format: in vivo, Amaranthus retroflexus; conditions: for Plant response rating: Postemergence, Pigweed, scale 0 to 100; for Plant response rating, Pigweed: Preemergence, scale 0 to 100 (0 no effect, 100 complete control)
Procedure, shortened: (§3)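 Visual injury score, 0 (no effect) to 100 (complete control), taken 7–21 d post-treatment against untreated controls. Application was preemergence in silt loam and postemergence at 1- to 4-leaf stage, using a surfactant-containing non-phytotoxic solvent formulation.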

surinam grass = experiment: Test E preemergence herbicide test; format: in vivo, Brachiaria decumbens; set-up: key: 0 = no effect, 100 = complete control
Text: as §2

field poppy = experiment: Test D pre-/postemergence herbicide test; format: in vivo, Papaver rhoeas; conditions: for Plant response rating: Field Poppy, scale 0 to 100; for Plant response rating, Field Poppy: scale 0 to 100 (0 no effect, 100 complete control)
Procedure, shortened: as §3

nightshade = experiment: Test E preemergence herbicide test; format: in vivo, Solanum ptycanthum; set-up: key: 0 = no effect, 100 = complete control
Text: as §2

Structure (SMILES)	Plant response rating, Kochia (kochia; 31 g ai/ha)	Plant response rating, Kochia (kochia; 62 g ai/ha)	Plant response rating, Kochia (kochia; 125 g ai/ha)	Plant response rating, Kochia (kochia; 250 g ai/ha)	Plant response rating, Crabgrass, Large (crabgrass, large; 31 g ai/ha)	Plant response rating, Crabgrass, Large (crabgrass, large; 62 g ai/ha)	Plant response rating, Crabgrass, Large (crabgrass, large; 125 g ai/ha)	Plant response rating, Crabgrass, Large (crabgrass, large; 250 g ai/ha)	Plant response rating, Soybean (soybean; 31 g ai/ha)	Plant response rating, Soybean (soybean; 62 g ai/ha)	Plant response rating, Soybean (soybean; 125 g ai/ha)	Plant response rating, Soybean (soybean; 250 g ai/ha)	Plant response rating, Surinam Grass (surinam grass; 31 g ai/ha)	Plant response rating, Surinam Grass (surinam grass; 62 g ai/ha)	Plant response rating, Surinam Grass (surinam grass; 125 g ai/ha)	Plant response rating, Surinam Grass (surinam grass; 250 g ai/ha)	Plant response rating, Nightshade (nightshade; 62 g ai/ha)	Plant response rating, Nightshade (nightshade; 125 g ai/ha)	Plant response rating, Nightshade (nightshade; 250 g ai/ha)	Plant response rating, Pigweed (pigweed; 62 g ai/ha)	other results
O=C1NCC(c2ccc(F)c(F)c2)C1C(=O)Nc1cccc(F)c1F (centres unmarked) [Compound 17, N-(2,3-difluorophenyl)-4-(3,4-difluorophenyl)-2-oxo-3-pyrrolidinecarboxamide]	0	0	25	50	20	70	75	95	0	0	0	0	0	50	70	75	0	0	0		Plant response rating, Kochia (kochia; 16 g ai/ha): 0; Plant response rating, Crabgrass, Large (crabgrass, large; 16 g ai/ha): 15; Plant response rating, Soybean (soybean; 16 g ai/ha): 0; Plant response rating (pigweed; 16 g ai/ha): 0; Plant response rating (pigweed; 31 g ai/ha): 0; Plant response rating (pigweed; 62 g ai/ha): 40; Plant response rating (pigweed; 125 g ai/ha): 50; Plant response rating (pigweed; 250 g ai/ha): 50; Plant response rating, Surinam Grass (surinam grass; 16 g ai/ha): 0; Plant response rating (field poppy; Postemergence, 16 g ai/ha): 0; Plant response rating (field poppy; Postemergence, 31 g ai/ha): 0; Plant response rating (field poppy; Postemergence, 62 g ai/ha): 0; Plant response rating (field poppy; Postemergence, 125 g ai/ha): 0; Plant response rating (field poppy; Postemergence, 250 g ai/ha): 0; Plant response rating, Nightshade (nightshade; 16 g ai/ha): 0
O=C1NCC(c2ccc(C(F)(F)F)cc2)C1C(=O)Nc1cccc(F)c1F (centres unmarked) [Compound 80, N-(2,3-difluorophenyl)-2-oxo-4-[4-(trifluoromethyl)phenyl]-3-pyrrolidinecarboxamide]	60	60	80	90	90	95	95	95	0	0	0	40	40	50	60	70	60	70	70	10	Plant response rating, Crabgrass, Large (crabgrass, large; 16 g ai/ha): 50; Plant response rating, Soybean (soybean; 16 g ai/ha): 0; Plant response rating (pigweed; 31 g ai/ha): 40; Plant response rating (pigweed; 62 g ai/ha): 70; Plant response rating (pigweed; 125 g ai/ha): 70; Plant response rating (pigweed; 250 g ai/ha): 75; Plant response rating, Pigweed (pigweed; 125 g ai/ha): 20; Plant response rating, Pigweed (pigweed; 31 g ai/ha): 5; Plant response rating, Pigweed (pigweed; 250 g ai/ha): 45; Plant response rating, Surinam Grass (surinam grass; 16 g ai/ha): 30; Plant response rating (field poppy; Postemergence, 31 g ai/ha): 25; Plant response rating (field poppy; Postemergence, 62 g ai/ha): 55; Plant response rating (field poppy; Postemergence, 125 g ai/ha): 20; Plant response rating (field poppy; Postemergence, 250 g ai/ha): 50; Plant response rating, Field Poppy (field poppy; Preemergence, 62 g ai/ha): 100; Plant response rating, Field Poppy (field poppy; Preemergence, 31 g ai/ha): 90; Plant response rating (field poppy; Preemergence, 125 g ai/ha): 100; Plant response rating (field poppy; Preemergence, 250 g ai/ha): 100; Plant response rating, Nightshade (nightshade; 16 g ai/ha): 50
O=C1NC[C@H](c2cccc(C(F)(F)F)c2)[C@H]1C(=O)Nc1ccccc1F [Compound 204, (3R,4S)—N-(2-fluorophenyl)-2-oxo-4-[3-(trifluoromethyl)phenyl]-3-pyrrolidinecarboxamide]	0	0	90	40	95	98	98	98	0	0	0		35	60	98	95	20	100	100	5	Plant response rating, Pigweed (pigweed; 125 g ai/ha): 35; Plant response rating, Pigweed (pigweed; 31 g ai/ha): 0; Plant response rating, Pigweed (pigweed; 250 g ai/ha): 35; Plant response rating, Field Poppy (field poppy; Preemergence, 62 g ai/ha): 85; Plant response rating, Field Poppy (field poppy; Preemergence, 125 g ai/ha): 80; Plant response rating, Field Poppy (field poppy; Preemergence, 31 g ai/ha): 75; Plant response rating (field poppy; Preemergence, 250 g ai/ha): 95; Plant response rating, Nightshade (nightshade; 31 g ai/ha): 0
O=C1NC[C@H](c2cccc(C(F)(F)F)c2)[C@H]1C(=O)Nc1cccc(F)c1F [Compound 206]	0	0	50	80	98	98	98	100	0	0	0	0	50	95	85	98	0	5	10	20	Plant response rating, Pigweed (pigweed; 125 g ai/ha): 40; Plant response rating, Pigweed (pigweed; 31 g ai/ha): 5; Plant response rating, Pigweed (pigweed; 250 g ai/ha): 50; Plant response rating, Field Poppy (field poppy; Preemergence, 62 g ai/ha): 90; Plant response rating, Field Poppy (field poppy; Preemergence, 125 g ai/ha): 90; Plant response rating, Field Poppy (field poppy; Preemergence, 31 g ai/ha): 80; Plant response rating (field poppy; Preemergence, 250 g ai/ha): 95; Plant response rating, Nightshade (nightshade; 31 g ai/ha): 0
